# Columns and labels:
# [1] = target: T1, OATP1B3 (Homo sapiens, UniProt Q9NPD5); experiment: inhibition of ophiopogonin D uptake in HEK293T cells, LC-MS; type: cell-based
# T1 construct: gene SLCO1B3; stably expressed in HEK293T cells (Shanghai Genechem), sodium butyrate induced
# T1 sequence (Q9NPD5 1-702): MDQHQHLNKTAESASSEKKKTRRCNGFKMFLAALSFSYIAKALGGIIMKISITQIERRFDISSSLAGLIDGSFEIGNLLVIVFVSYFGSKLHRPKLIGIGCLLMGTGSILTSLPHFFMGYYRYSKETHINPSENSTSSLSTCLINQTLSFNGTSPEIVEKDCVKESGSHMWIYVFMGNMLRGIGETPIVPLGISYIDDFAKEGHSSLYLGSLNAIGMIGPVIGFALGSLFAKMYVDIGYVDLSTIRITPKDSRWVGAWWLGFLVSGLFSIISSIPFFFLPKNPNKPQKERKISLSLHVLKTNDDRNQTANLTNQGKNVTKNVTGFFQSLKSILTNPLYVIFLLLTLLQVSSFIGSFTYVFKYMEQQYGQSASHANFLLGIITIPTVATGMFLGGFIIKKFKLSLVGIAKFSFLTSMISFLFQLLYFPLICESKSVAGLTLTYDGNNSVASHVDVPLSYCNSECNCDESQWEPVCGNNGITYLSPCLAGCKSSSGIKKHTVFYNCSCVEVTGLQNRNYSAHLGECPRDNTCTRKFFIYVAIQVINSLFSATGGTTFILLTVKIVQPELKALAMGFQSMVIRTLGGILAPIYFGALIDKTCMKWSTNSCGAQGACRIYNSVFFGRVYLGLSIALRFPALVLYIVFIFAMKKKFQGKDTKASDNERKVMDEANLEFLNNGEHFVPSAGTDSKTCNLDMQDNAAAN
# Excerpt: inhibition of ophiopogonin D uptake in HEK293T cells, LC-MS on OATP1B3
# [2] = target: T1, OATP1B3; experiment: concentration-dependent uptake in HEK293T cells, LC-MS; type: cell-based
# Excerpt: concentration-dependent uptake in HEK293T cells, LC-MS on OATP1B3 | uptake process of OPD for OATP1B3 followed a typical Michaelis-Menten equation
IC50 [1] [nM],SMILES,Km [2] [µM]
570,CC(C)=CCC[C@](C)(O[C@@H]1O[C@H](CO[C@@H]2O[C@H](CO)[C@@H](O)[C@H](O)[C@H]2O)[C@@H](O)[C@H](O)[C@H]1O)[C@H]1CC[C@]2(C)[C@@H]1[C@H](O)C[C@@H]1[C@@]3(C)CC[C@H](O[C@@H]4O[C@H](CO)[C@@H](O)[C@H](O)[C@H]4O[C@@H]4O[C@H](CO)[C@@H](O)[C@H](O)[C@H]4O)C(C)(C)[C@@H]3CC[C@]12C [ginsenoside Rb1],–
–,C[C@@H]1CC[C@@]2(OC1)O[C@H]1C[C@H]3[C@@H]4CC=C5C[C@@H](O)C[C@@H](O[C@@H]6O[C@H](C)[C@H](O)[C@H](O[C@@H]7OC[C@@H](O)[C@H](O)[C@H]7O)[C@H]6O[C@@H]6O[C@@H](C)[C@H](O)[C@@H](O)[C@H]6O)[C@]5(C)[C@H]4CC[C@]3(C)[C@H]1[C@@H]2C [Ophiopogonin D],11.3
320,CC(C)=CCC[C@](C)(O[C@@H]1O[C@H](CO)[C@@H](O)[C@H](O)[C@H]1O)[C@H]1CC[C@]2(C)[C@@H]1[C@H](O)C[C@@H]1[C@@]3(C)CC[C@H](O[C@@H]4O[C@H](CO)[C@@H](O)[C@H](O)[C@H]4O[C@@H]4O[C@H](CO)[C@@H](O)[C@H](O)[C@H]4O)C(C)(C)[C@@H]3CC[C@]12C [ginsenoside Rd],–

# Source: article PMC6113708, “Ginsenoside Rb1 and Rd Remarkably Inhibited the Hepatic Uptake of Ophiopogonin D in Shenmai Injection Mediated by OATPs/oatps” (Frontiers in Pharmacology, 2018)
